Test system: Escherichia coli strain ATCC25922
Assay: standard microdilution assay to determine minimum inhibitory concentrations (MICs)
Format: cell-based
Details: for E. coli ATCC25922 MIC: Escherichia coli strain ATCC25922, microdilution; for MIC: Escherichia coli, ATCC25922, Escherichia coli strain ATCC25922, microdilution, read-out: E. coli ATCC25922 MIC
Description: Minimum inhibitory concentrations (MICs) are determined by the microdilution method, typically in a final volume of 100 microliters, according to protocols outlined by The Clinical and Laboratory Standards Institute [CLSI; formerly the National Committee for Clinical Laboratory Standards (NCCLS)]. See CLSI: Methods for dilution antimicrobial susceptibility tests for bacteria that grow aerobically; approved standard-fifth edition. Wayne, Pa.: NCCLS; 2000. The assays can be also be performed in microtiter trays according to conventional methodologies as published by the CLSI. See CLSI. Methods for Dilution Antimicrobial Susceptibility Tests for Bacteria That Grow Aerobically; Approved Standard—Seventh Edition. CLSI Document M7-A7 [ISBN 1-56238-587-9] CLSI, 940 West Valley Road, Suite 1400, Wayne Pa. 19087-1898 USA, 2006).
The compounds of the present invention were tested for antimicrobial activity. The compounds were run against Escherichia coli strain ATCC25922 using a standard microdilution assay to determine minimum inhibitory concentrations (MICs). […] A “N/A” means that data is unavailable. It will be recognized by one skilled in the art that the compounds can be assessed against other bacterial organisms and that the presentation of data for activity against Escherichia coli is illustrative and in no way is intended to limit the scope of the present invention. The compounds of the present invention can be assayed against a range of other microorganisms depending upon the performance activity desired to be gathered. Furthermore, the “+”, “−”, and “N/A” representation and the selection of a cutoff value of 16 micrograms/ml is also illustrative and in no way is intended to limit the scope of the present invention.

CC(CN)CN1CCC(c2cc3cn(-c4ccc(CNCCCNC(=N)N)cc4)c(=O)nc3[nH]2)C1 (mixture of isomers) [Compound 2008a]
E. coli ATCC25922 MIC: + (a “+” indicates that the compound has an MIC value of 16 micrograms/ml or less)

CC(CN)CN1CCC(c2cc3cn(-c4ccc(CNCCCNC(=N)N)cc4)c(=O)nc3[nH]2)C1 (mixture of isomers) [Compound 2016a]
E. coli ATCC25922 MIC: + (a “+” indicates that the compound has an MIC value of 16 micrograms/ml or less)

N=C(N)NCCCNCc1ccc(-n2cc3cc(-c4ccc(S(=O)(=O)N(CC5CCOCC5)C5CCCNC5)cc4)[nH]c3nc2=O)cc1 (single isomer, unassigned) [Compound 844]
E. coli ATCC25922 MIC: + (a “+” indicates that the compound has an MIC value of 16 micrograms/ml or less)

N=C(N)NCCCNCc1ccc(-n2cc3cc(-c4ccc(S(=O)(=O)N(CC5CCOCC5)C5CCCNC5)cc4)[nH]c3nc2=O)cc1 (single isomer, unassigned) [Compound 845]
E. coli ATCC25922 MIC: + (a “+” indicates that the compound has an MIC value of 16 micrograms/ml or less)

NCc1ccc(-n2cc3cc[nH]c3nc2=O)cc1 [Compound 142]
MIC: > 16 µg/mL

NCCCN(CCCN)Cc1ccc(-n2cc3cc[nH]c3nc2=O)cc1 [Compound 154]
MIC: > 16 µg/mL

COC(=O)C(N)Cc1cc2cn(-c3ccc(CN(CCCN)CCCN)cc3)c(=O)nc2[nH]1 (centres unmarked) [Compound 169]
MIC: > 16 µg/mL

NCCCN(CCCN)Cc1ccc(-n2cc3cc(-c4ccc(CO)cc4)[nH]c3nc2=O)cc1 [Compound 179]
MIC: > 16 µg/mL

NCCCN(CCCN)Cc1ccc(-n2cc3cc(-c4ccc(F)cc4)[nH]c3nc2=O)cc1 [Compound 180]
MIC: > 16 µg/mL

NCCCN(CCCN)Cc1ccc(-n2cc3cc(Cn4nnc5ccccc54)[nH]c3nc2=O)cc1 [Compound 182]
MIC: > 16 µg/mL

NCCCN(CCCN)Cc1ccc(-n2cc3cc(CCc4ccccc4)[nH]c3nc2=O)cc1 [Compound 183]
MIC: > 16 µg/mL

Cn1cncc1-c1cc2cn(-c3ccc(CN(CCCN)CCCN)cc3)c(=O)nc2[nH]1 [Compound 184]
MIC: < 16 µg/mL

NCCCN(CCCN)Cc1ccc(-n2cc3cc(-c4ccc(C(=O)N[C@H]5CC[C@H](O)CC5)cc4)[nH]c3nc2=O)cc1 [Compound 192]
MIC: > 16 µg/mL

NCCCN(CCCN)Cc1ccc(-n2cc3cc(-c4ccc(C(=O)NC5CCOCC5)cc4)[nH]c3nc2=O)cc1 [Compound 193]
MIC: > 16 µg/mL

N=C(N)NCCCN(CCCN)Cc1ccc(-n2cc3cc[nH]c3nc2=O)cc1 [Compound 194]
MIC: < 16 µg/mL

NCCCN(CCCN)Cc1ccc(-n2cc3cc(-c4ccc(C(=O)Nc5cccnc5)cc4)[nH]c3nc2=O)cc1 [Compound 195]
MIC: > 16 µg/mL

NCCCN(CCCN)Cc1ccc(-n2cc3cc(-c4ccc(C(=O)NC5CN6CCC5CC6)cc4)[nH]c3nc2=O)cc1 (centres unmarked) [Compound 196]
MIC: < 16 µg/mL

NCCCN(CCCN)Cc1ccc(-n2cc3cc(-c4ccc(C(=O)NC5CCNCC5)cc4)[nH]c3nc2=O)cc1 [Compound 197]
MIC: < 16 µg/mL

NCCCN(CCCN)Cc1ccc(-n2cc3cc(-c4ccc(S(=O)(=O)NC5CCNCC5)cc4)[nH]c3nc2=O)cc1 [Compound 198]
MIC: < 16 µg/mL

NCCCN(CCCN)Cc1ccc(-n2cc3cc(-c4ccc(S(=O)(=O)NC5CCNCC5)cc4F)[nH]c3nc2=O)cc1 [Compound 200]
MIC: < 16 µg/mL

NCCCN(CCCN)Cc1ccc(-n2cc3cc(-c4ccc(S(=O)(=O)NC5CN6CCC5CC6)cc4)[nH]c3nc2=O)cc1 (centres unmarked) [Compound 201]
MIC: < 16 µg/mL

CN1CCC(NC(=O)c2ccc(-c3cc4cn(-c5ccc(CN(CCCN)CCCN)cc5)c(=O)nc4[nH]3)cc2)CC1 [Compound 204]
MIC: < 16 µg/mL

CN1C2CCC1CC(NC(=O)c1ccc(-c3cc4cn(-c5ccc(CN(CCCN)CCCN)cc5)c(=O)nc4[nH]3)cc1)C2 (centres unmarked) [Compound 206]
MIC: < 16 µg/mL

N=C(N)NCCCN(CCCN)Cc1ccc(-n2cc3cc(-c4ccc(C(=O)NC5CN6CCC5CC6)cc4)[nH]c3nc2=O)cc1 (centres unmarked) [Compound 216]
MIC: < 16 µg/mL

N=C(N)NCCCN(CCCN)Cc1ccc(-n2cc3cc(-c4ccc(C(=O)NC5CCNCC5)cc4)[nH]c3nc2=O)cc1 [Compound 217]
MIC: < 16 µg/mL

NCCCN(CCCN)Cc1ccc(-n2cc3cc(-c4ccc(C(=O)O)cc4)[nH]c3nc2=O)cc1 [Compound 218]
MIC: > 16 µg/mL

N=C(N)NCCCN(CCCN)Cc1ccc(-n2cc3cc(-c4ccc(S(=O)(=O)NC5CN6CCC5CC6)cc4)[nH]c3nc2=O)cc1 (centres unmarked) [Compound 219]
MIC: < 16 µg/mL

N=C(N)NCCCN(CCCN)Cc1ccc(-n2cc3cc(-c4ccc(S(=O)(=O)NC5CCNCC5)cc4)[nH]c3nc2=O)cc1 [Compound 220]
MIC: < 16 µg/mL

N=C(N)NCCCN(CCCN)Cc1ccc(-n2cc3cc(-c4ccc(S(=O)(=O)NC5CCNCC5)cc4F)[nH]c3nc2=O)cc1 [Compound 221]
MIC: < 16 µg/mL

NCc1ccc(-n2cc3cc(-c4ccc(C(=O)NC5CCNCC5)cc4)[nH]c3nc2=O)cc1 [Compound 224]
MIC: < 16 µg/mL

NCCCN(CCCN)Cc1ccc(-n2cc3cc(-c4ccc(C(=O)N(Cc5cc(F)cc(F)c5)C5CCNCC5)cc4)[nH]c3nc2=O)cc1 [Compound 225]
MIC: < 16 µg/mL

Cc1cc(CN(C(=O)c2ccc(-c3cc4cn(-c5ccc(CN(CCCN)CCCN)cc5)c(=O)nc4[nH]3)cc2)C2CCNCC2)no1 [Compound 226]
MIC: > 16 µg/mL

NCCCNCc1ccc(-n2cc3cc(-c4ccc(C(=O)NC5CCNCC5)cc4)[nH]c3nc2=O)cc1 [Compound 227]
MIC: < 16 µg/mL

NC(=O)/N=C(\N)NCCCNCc1ccc(-n2cc3cc(-c4ccc(C(=O)NC5CCNCC5)cc4)[nH]c3nc2=O)cc1 [Compound 228]
MIC: < 16 µg/mL

NC(=O)/N=C(/N)NCCNCc1ccc(-n2cc3cc(-c4ccc(C(=O)NC5CCNCC5)cc4)[nH]c3nc2=O)cc1 [Compound 229]
MIC: < 16 µg/mL

NCCCN(CCCN)Cc1ccc(-n2cc3cc(-c4ccc(S(=O)(=O)N(CC(=O)O)C5CCNCC5)cc4)[nH]c3nc2=O)cc1 [Compound 230]
MIC: > 16 µg/mL

NCCCN(CCCN)Cc1ccc(-n2cc3cc(-c4ccc(S(=O)(=O)N5CCN6CCC5CC6)c(F)c4)[nH]c3nc2=O)cc1 [Compound 231]
MIC: < 16 µg/mL

CSCCN(C1CCNCC1)S(=O)(=O)c1ccc(-c2cc3cn(-c4ccc(CN(CCCN)CCCN)cc4)c(=O)nc3[nH]2)cc1 [Compound 232]
MIC: < 16 µg/mL

NCCCN(CCCN)Cc1ccc(-n2cc3cc(-c4ccc(S(=O)(=O)N(CCN5CCOCC5)C5CCNCC5)cc4)[nH]c3nc2=O)cc1 [Compound 233]
MIC: < 16 µg/mL

N=C(N)NCCCNCc1ccc(-n2cc3cc(-c4ccc(C(=O)NC5CCNCC5)cc4)[nH]c3nc2=O)cc1 [Compound 234]
MIC: < 16 µg/mL

NCCCN(CCCN)Cc1ccc(-n2cc3cc(-c4ccc(S(=O)(=O)N(Cc5ccc(Cl)c(Cl)c5)C5CCNCC5)cc4)[nH]c3nc2=O)cc1 [Compound 235]
MIC: < 16 µg/mL

NCCCN(CCCN)Cc1ccc(-n2cc3cc(-c4ccc(S(=O)(=O)N(Cc5ccc(SC(F)(F)F)cc5)C5CCNCC5)cc4)[nH]c3nc2=O)cc1 [Compound 236]
MIC: < 16 µg/mL

Cc1cc(F)cc(CN(C2CCNCC2)S(=O)(=O)c2ccc(-c3cc4cn(-c5ccc(CN(CCCN)CCCN)cc5)c(=O)nc4[nH]3)cc2)c1 [Compound 237]
MIC: < 16 µg/mL

O=C(NC1CCNCC1)c1ccc(-c2cc3cn(-c4ccc(CNCc5c[nH]nn5)cc4)c(=O)nc3[nH]2)cc1 [Compound 240]
MIC: > 16 µg/mL

CN(CCCNCc1ccc(-n2cc3cc(-c4ccc(C(=O)NC5CCNCC5)cc4)[nH]c3nc2=O)cc1)C(=N)N [Compound 241]
MIC: < 16 µg/mL

NCc1ccc(-n2cc3cc(-c4ccc(S(=O)(=O)NC5CCNCC5)c(Cl)c4)[nH]c3nc2=O)cc1 [Compound 245]
MIC: > 16 µg/mL

O=c1nc2[nH]c(-c3ccc(S(=O)(=O)NC4CCNCC4)cc3F)cc2cn1-c1ccc(CNCCCCl)cc1 [Compound 250]
MIC: > 16 µg/mL

O=C(NC1CCNCC1)c1ccc(-c2cc3cn(-c4ccc(CNCCCCl)cc4)c(=O)nc3[nH]2)c(F)c1 [Compound 253]
MIC: > 16 µg/mL

O=C(NC1CCNCC1)c1ccc(-c2cc3cn(-c4ccc(CNCCCCl)cc4)c(=O)nc3[nH]2)cc1F [Compound 254]
MIC: > 16 µg/mL

NCc1ccc(-n2cc3cc(-c4cc(F)c(C(=O)NC5CCNCC5)c(F)c4)[nH]c3nc2=O)cc1 [Compound 258]
MIC: < 16 µg/mL

O=c1nc2[nH]c(-c3ccc(S(=O)(=O)NC4CCNCC4)c(Cl)c3)cc2cn1-c1ccc(CNCCCF)cc1 [Compound 261]
MIC: > 16 µg/mL

O=C(NC1CCNCC1)c1c(F)cc(-c2cc3cn(-c4ccc(CNCCCF)cc4)c(=O)nc3[nH]2)cc1F [Compound 262]
MIC: > 16 µg/mL

NC1CCN(Cc2ccc(-n3cc4cc(-c5ccc(S(=O)(=O)NC6CCNCC6)cc5F)[nH]c4nc3=O)cc2)CC1 [Compound 263]
MIC: < 16 µg/mL

NC1CCN(Cc2ccc(-n3cc4cc(-c5ccc(S(=O)(=O)N6CCN7CCC6CC7)c(F)c5)[nH]c4nc3=O)cc2)CC1 [Compound 264]
MIC: > 16 µg/mL

NCc1ccc(-n2cc3cc(-c4ccc(S(=O)(=O)NC5CCNCC5)c(Cl)c4)[nH]c3nc2=O)cc1F [Compound 272]
MIC: > 16 µg/mL

O=c1nc2[nH]c(-c3ccc(S(=O)(=O)NC4CCNCC4)cc3F)cc2cn1-c1ccc(CNCCCF)c(F)c1 [Compound 279]
MIC: > 16 µg/mL

— US9193731B2, “Antimicrobial compounds and methods of making and using the same” (Melinta Therapeutics, Inc., priority 2009, dated 2015)
